# According to publication PMC5584945, “Evaluation of robenidine analog NCL195 as a novel broad-spectrum antibacterial agent” (PLoS ONE, 2017):
# Key:
# S. pneumoniae = assay: MIC, broth micro-dilution (CLSI); assay type: cell-based, Streptococcus pneumoniae; details: for MIC90 / MIC / MIC50: Streptococcus pneumoniae
# S. aureus Xen29 = assay: Time-dependent killing assay; assay type: cell-based, Staphylococcus aureus; details: for Time to clear all Xen29: 4× MIC
# Experimental: Time kill assays were performed (in duplicate) essentially as described previously with slight modifications. Briefly, a few colonies of luminescent S. pneumoniae strain D39LUX or luminescent S. aureus ATCC 12600 (Xen29) from an overnight HBA were emulsified in normal saline and adjusted to A600 nm = 0.10 (equivalent to approx. 5 × 10^7 c.f.u. per ml) and the bacterial suspension further diluted 1:20 in saline. […] The compounds were serially diluted in 100% DMSO at 100× the final desired concentration and 100 μl of appropriate concentrations added to each 10 ml preparation. Duplicate cultures were incubated at 37°C (+ 5% CO2 for S. pneumoniae D39), with samples withdrawn at 0, 0.5, 1, 2, 4, 6, 8 and 24 h, serially diluted 10-fold and plated on HBA overnight at 37°C (+ 5% CO2 for S. pneumoniae D39) for bacterial enumeration.
# [1] = S1 Table isolates, 5% FBS + 3% washed RBC
# [2] = ATCC6303, ATCC 6303 (serotype 3), 5% FBS + 3% washed RBC
# [3] = D39/D39LUX (serotype 2), 5% FBS
SMILES,MIC range (S. pneumoniae; [1]),MIC90 (S. pneumoniae; 21 isolates),"MIC (S. pneumoniae; A66.1 (serotype 3), 5% FBS)",MIC (S. pneumoniae; [2]),MIC (S. pneumoniae; [3]),"MIC (S. pneumoniae; EF3030 (serotype 19F), 5% FBS)","MIC (S. pneumoniae; L82016 (serotype 6B), 5% FBS)","MIC (S. pneumoniae; P9 (serotype 6A), 5% FBS)","MIC (S. pneumoniae; P21 (serotype 3), 5% FBS)","MIC50 (S. pneumoniae; S1 Table isolates, 5% FBS)","MIC90 (S. pneumoniae; S1 Table isolates, 5% FBS)","MIC (S. pneumoniae; TIGR4 (serotype 4), 5% FBS)","MIC (S. pneumoniae; WCH16 (serotype 6A), 5% FBS)","MIC (S. pneumoniae; WCH43 (serotype 4), 5% FBS)","MIC (S. pneumoniae; WCH46 (serotype 4), 5% FBS)","MIC (S. pneumoniae; WCH57 (serotype 8), 5% FBS)","MIC (S. pneumoniae; WCH77 (serotype 5), 5% FBS)","MIC (S. pneumoniae; WCH86 (serotype 4), 5% FBS)","MIC (S. pneumoniae; WCH89 (serotype 7), 5% FBS)","MIC (S. pneumoniae; WCH92 (serotype 4), 5% FBS)",other results
CC1(C)S[C@@H]2[C@H](NC(=O)[C@H](N)c3ccccc3)C(=O)N2[C@H]1C(=O)O [Ampicillin],0.06 to 1 mg/L,0.5 mg/L,0.125 mg/L,0.125 mg/L,0.125 mg/L,0.5 mg/L,0.06 mg/L,0.06 mg/L,0.06 mg/L,0.125 mg/L,0.5 mg/L,0.125 mg/L,1 mg/L,0.125 mg/L,0.125 mg/L,0.5 mg/L,0.5 mg/L,0.06 mg/L,0.125 mg/L,0.5 mg/L,"MIC (S. pneumoniae; WCH137 (serotype 6A), 5% FBS): 0.06 mg/L; MIC (S. pneumoniae; WCH158 (serotype 19F), 5% FBS): 0.125 mg/L; MIC (S. pneumoniae; WCH184 (serotype 19F), 5% FBS): 0.125 mg/L; MIC (S. pneumoniae; WCH211 (serotype 11), 5% FBS): 0.125 mg/L; MIC (S. pneumoniae; WU2 (serotype 3), 5% FBS): 0.125 mg/L; Time to clear all Xen29 (S. aureus Xen29): 6 h; Regrowth after 24 h (S. aureus Xen29; at the concentrations tested (2× and 4× MIC)): some S. aureus regrowth was observed"
"CCCCCCCCCC(=O)N[C@@H](Cc1c[nH]c2ccccc12)C(=O)N[C@H](CC(N)=O)C(=O)N[C@@H](CC(=O)O)C(=O)N[C@@H]1C(=O)NCC(=O)N[C@@H](CCCN)C(=O)N[C@@H](CC(=O)O)C(=O)N[C@H](C)C(=O)N[C@@H](CC(=O)O)C(=O)NCC(=O)N[C@H](CO)C(=O)N[C@@H]([C@H](C)CC(=O)O)C(=O)N[C@@H](CC(=O)c2ccccc2N)C(=O)O[C@@H]1C [Daptomycin, daptomycin]",0.125 to 0.5 mg/L,0.5 mg/L,0.25 mg/L,0.25 mg/L,0.25 mg/L,0.25 mg/L,0.25 mg/L,0.25 mg/L,0.25 mg/L,0.25 mg/L,0.25 mg/L,0.25 mg/L,0.25 mg/L,0.25 mg/L,0.125 mg/L,0.25 mg/L,0.5 mg/L,0.125 mg/L,0.5 mg/L,0.125 mg/L,"MIC (S. pneumoniae; D39/D39LUX (serotype 2), 10% FBS): 0.25 mg/L; MIC (S. pneumoniae; WCH137 (serotype 6A), 5% FBS): 0.125 mg/L; MIC (S. pneumoniae; WCH158 (serotype 19F), 5% FBS): 0.125 mg/L; MIC (S. pneumoniae; WCH184 (serotype 19F), 5% FBS): 0.25 mg/L; MIC (S. pneumoniae; WCH211 (serotype 11), 5% FBS): 0.25 mg/L; MIC (S. pneumoniae; WU2 (serotype 3), 5% FBS): 0.125 mg/L; Time to clear all Xen29 (S. aureus Xen29): 1 h"
